Test [1] concerns MDA-MB-231. On the set-up: method as in PMID 21912610, PMID 28436164. The conditions noted are these: cited from earlier work.
For a further test, the system named is MCF-7dox. On the set-up: method as in PMID 21912610, PMID 28436164. The following applies: MCF-7 adapted to doxorubicin; cited from earlier work.
In the next test the test system is C33A. Put plainly: MTT antiproliferative assay, C33A. The conditions noted are these: Homo sapiens, C-33-A, 72 h. The test is classed as cell-based, human.
In the next test the test system is SiHa. The test can be described thus: MTT antiproliferative assay, SiHa. Type of test: cell-based, human. The conditions noted are these: Homo sapiens, SiHa, 72 h.
Another test has as its system MCF-7. Put plainly: MTT antiproliferative assay, MCF-7. Type of test: cell-based, human. The conditions noted are these: Homo sapiens.
Test [2] relates to MDA-MB-231. The test can be described thus: MTT antiproliferative assay, MDA-MB-231. The test is classed as cell-based, human. The conditions noted are these: Homo sapiens.
The test system of the next test is HeLa. The test can be described thus: MTT antiproliferative assay, HeLa. Type of test: cell-based, human. The following applies: Homo sapiens, HeLa, 72 h.
The test system of test [3] is NIH/3T3 mouse fibroblast cell line. Put plainly: MTT assay, tumour selectivity on non-cancerous fibroblasts. The test is classed as cell-based. The following applies: Mus musculus.

Read-outs that look alike come from different tables or passages of the source.

With `O=C1C=CC(O)(c2cc(=O)c3c(O)cc(O)cc3o2)C=C1` [compound 9, Protoapigenone], the IC50 with MDA-MB-231 [1] was 1350 nM.
Turning to `O=C1C=CC(O)(c2cc(=O)c3cc(-c4ccccc4)ccc3o2)C=C1` [compound 11], the IC50 in the test with MCF-7dox was 1230 nM.
Regarding `CCCCOC1(c2cc(=O)c3c(O)cc(O)cc3o2)C=CC(=O)C=C1` [compound 10, 1′-O-butyl protoapigenone, reference compound], the IC50 with MDA-MB-231 [1] was 620 nM; in the test on C33A (read-out: calculated IC50 C33A), 970 nM; in the test on SiHa (read-out: calculated IC50 SiHa), 1600 nM; in the test with MCF-7 (MCF7, 72 h, read-out: calculated IC50 MCF-7), 3030 nM; with MDA-MB-231 [2] (MDA-MB-231, 72 h, read-out: calculated IC50 MDA-MB-231) it was 1060 nM; in the test on HeLa (read-out: calculated IC50 HeLa) it was 1430 nM. For the same molecule, the IC50 in test [3] (NIH3T3, 72 h, read-out: calculated IC50 NIH/3T3) is 2270 nM. Further, the inhibition at 10 µM in the test with C33A (10 µM) worked out at 98%; in the test with SiHa (10 µM) it was 92.2%; with MCF-7 (MCF7, 10 µM, 72 h) it was 87.7%; with MDA-MB-231 [2] (MDA-MB-231, 10 µM, 72 h) it was 91.7%; with HeLa (10 µM), 95.7%; in test [3] (NIH3T3, 10 µM, 72 h), 95.5%. The inhibition at 30 µM with C33A (30 µM) came to 98.5%; in the test with SiHa (30 µM) it was 96.3%; in the test with MCF-7 (MCF7, 30 µM, 72 h) it was 93.3%; with MDA-MB-231 [2] (MDA-MB-231, 30 µM, 72 h), 92.8%; in the test with HeLa (30 µM), 96.2%; in test [3] (NIH3T3, 30 µM, 72 h) it was 99.1%.
